# Patent EP2029580B1, “NOVEL INDOL-PYRROL DERIVATIVES FOR THE TREATMENT OF PROLIFERATIVE AND INFLAMMATORY DISEASES” (ScheBo Biotech AG, priority 2006, dated 2007)
# Like-named read-outs stand apart in the source and are kept apart here.
# Key:
# [1] = tested on: Ovarialkarzinom (OVXF 550); experiment: Colony assay in soft agar, ovarian carcinoma OVXF 550; assay type: cell-based, menschlichen
# Excerpt: (§1) Im Kolonie-Assay werden Tumorstammzellen von verschiedenen menschlichen Tumorentitäten in Softagar kultiviert und die Ausbildung von Tumorkolonien in An- und Abwesenheiten von der erfindungsgemäßen Substanz (Beispiel 2.1, ggf. als Malat der Beispiel 2.2 oder 2.3) ausgezählt. Insgesamt wurde die Substanz an 25 verschiedenen Tumormodellen getestet. Zu den Tumormodellen gehörten Colon-, Pankreas- und Magenkarzinome, kleinzellige und nicht kleinzellige Lungentumore, Brust-, Ovar- und Nierenkarzinome sowie Melanome. Das breite Spektrum von verschiedenen Tumorentitäten sowie die große Anzahl von Modellen ermöglichen nach der Zellkultur eine erneute Prüfung der Wirksamkeit der Substanz und geben erste Hinweise darauf, ob die Substanz Wirkungsselektivität für bestimmte Tumorentitäten besitzt.
# Im gleichen Kolonie-Assay und unter gleichen experimentellen Bedingungen wurden für die erfindungsgemäße Substanz (5-[5-Fluoro-2-oxo-1,2-dihydro-indol-(3Z)-ylidenemythyl]-2,4-dimethyl-1H-pyrrole-3-carboxylic acid (2-diethylamino-ethoxy)-amide (vorzugsweise das Salz der Äpfelsäure, Malate) folgende Werte gefunden: OVXF 550: IC50 = […], IC70 = 21,6 µM
# [2] = tested on: 25 verschiedenen Tumormodellen; experiment: Colony assay in soft agar, 25 tumour models; assay type: cell-based, menschlichen
# Excerpt: as §1
# (§2) Die Ergebnisse sind in der Figur 1 dargestellt (graphische Analyse der Mittelwerte für die Substanz basierend auf den IC70-Werten). Die Balken stellen die IC70-Konzentrationen im Verhältnis zum Mittelwerte aller IC70-Werte dar. Bei Balken nach links ist der IC70-Wert für das betreffende Modell niedriger als der Mittelwert der IC70-Werte aller Modelle, d.h. diese Modelle sind sensitiver im Vergleich zum Durchschnitt aller Modelle. Balken nach rechts bedeuten höhere IC70-Werte als der Durchschnitt der Modelle und damit eine geringere Sensitivität.
# Brusttumormodell = experiment: Colony assay in soft agar, breast tumour model; assay type: cell-based, menschlichen; conditions: least sensitive model
# Excerpt: as §1, §2
# BxPC-3 = experiment: XTT cell proliferation inhibition, BxPC-3; assay type: cell-based, humane
# Excerpt: (§3) Die Substanzen der Beispiele 2.1 bis 2.3 wurden an verschiedenen Zelllinien in An- und Abwesenheit von Pyruvat im Nährmedium auf ihre proliferationshemmende Wirkung getestet. Die Substanzen wurden jeweils in DMSO gelöst. Anschließend wurde der Wirkstoff in acht Konzentrationsintervallen getestet. Der Berechnung der IC50-Werte lagen in jeder Konzentration acht Einzelwertbestimmungen zugrunde. Der IC50-Wert gibt die Wirkstoffkonzentration an, bei der im Vergleich zur Kontrollgruppe, die ausschließlich mit dem Lösungsmittel DMSO behandelt wurde, eine 50%ige Hemmung der Zellproliferation vorlag.
# HT-29 = experiment: XTT cell proliferation inhibition, HT-29; assay type: cell-based, humane; conditions: read-out: IC50 ohne Pyrovat
# Excerpt: as §3
# Wi-38 = experiment: XTT cell proliferation inhibition, Wi-38; assay type: cell-based, humane; conditions: Homo sapiens; Wi-38, with pyruvate in the medium; read-out: IC50 (XTT) mit Pyrovat
# Excerpt: as §3
# MDA-MB-453 = experiment: XTT cell proliferation inhibition, MDA-MB-453; assay type: cell-based, humane; conditions: Homo sapiens
# Excerpt: as §3
# NK1 = experiment: XTT cell proliferation inhibition, NK1; assay type: cell-based, Ratten; conditions: NK1, without pyruvate in the medium; read-out: IC50 ohne Pyrovat
# Excerpt: as §3
# [3] = tested on: nicht kleinzelliges Lungentumormodell; experiment: Colony assay in soft agar, non-small-cell lung tumour model; assay type: cell-based, menschlichen; conditions: most sensitive model
# Excerpt: as §1, §2
# KBV-600 = experiment: XTT cell proliferation inhibition, KBV-600; assay type: cell-based; conditions: KBV-600 (cultured with 600 ng/ml Vinblastin), without pyruvate in the medium; read-out: IC50 ohne Pyrovat
# Excerpt: as §3
# MCF-7 = experiment: XTT cell proliferation inhibition, MCF-7; assay type: cell-based, humane
# Excerpt: as §3
# verschiedenen Zelllinien = experiment: Cell culture proliferation inhibition, summary over all cell lines; assay type: cell-based; conditions: span over the cell lines of Table 1; read-out: IC50-Werte
# Excerpt: as §3
smiles,measurement,setting,value
"CCN(CC)CCONC(=O)c1c(C)[nH]c(/C=C2\C(=O)Nc3ccc(F)cc32)c1C [Beispiel 2.1, 5-[5-Fluoro-2-oxo-1,2-dihydro-indol-(3Z)-ylidenemethyl]-2,4-dimethyl-1H-pyrrole-3-carboxylic acid (2-diethylamino-ethoxy)-amide]",IC70,[1],"21,6 µM"
same,IC50,[1]; substance preferably as malate salt,16.7 µM
same,Hemmung der Koloniebildung,[2]; all 25 models,Dosis-abhängigen Hemmung der Koloniebildung
same,mittlere IC70-Wert,[2]; mean over all 25 tumour models,20 µM
same,IC50,"[2]; mean over all 25 tumour models, read-out: mittlere IC50-Wert",15 µM
same,IC70-Wert,Brusttumormodell,40 µM
same,IC50,Brusttumormodell; read-out: höchste IC50-Wert,30 µM
same,IC50,"BxPC-3; Homo sapiens, BxPC-3, with pyruvate in the medium, read-out: IC50 (XTT) mit Pyrovat",1300 nM
same,IC50,"BxPC-3; Homo sapiens, BxPC-3, without pyruvate in the medium, read-out: IC50 ohne Pyrovat",2000 nM
same,IC50,"HT-29; Homo sapiens, HT-29, without pyruvate in the medium",3500 nM
same,IC50,Wi-38,11 µM
same,IC50,"MDA-MB-453; MDA-MB-453, with pyruvate in the medium, read-out: IC50 (XTT) mit Pyrovat",11 µM
same,IC50,"MDA-MB-453; MDA-MB-453, without pyruvate in the medium, read-out: IC50 ohne Pyrovat",7 µM
same,IC50,NK1,2 µM
same,IC50,[3],4 µM
same,IC70-Wert,[3],6 µM
same,IC50,KBV-600,5 µM
same,IC50,"MCF-7; Homo sapiens, MCF7, MCF-7, with pyruvate in the medium, read-out: IC50 (XTT) mit Pyrovat",11 µM
same,IC50,"MCF-7; Homo sapiens, MCF7, MCF-7, without pyruvate in the medium, read-out: IC50 ohne Pyrovat",8 µM
"CCN(CC)CCONC(=O)c1c(C)[nH]c(/C=C2\C(=O)Nc3ccc(F)cc32)c1C [Beispiel 2.2, N-[2-(diethylamino)ethoxy]-5-[(Z)-(5-Fluoro-1,2-dihydro-2-oxo-3H-indol-3-ylidene)methyl]-2,4-dimethyl-1H-pyrrole-3-carboxamide, (2S)-hydroxybutanedionate (1:0,5)]",IC50,"BxPC-3; BxPC-3, with pyruvate in the medium, read-out: IC50 (XTT) mit Pyrovat",2000 nM
same,IC50,"BxPC-3; BxPC-3, without pyruvate in the medium, read-out: IC50 ohne Pyrovat",2000 nM
same,IC50,"HT-29; Homo sapiens, HT-29, HT-29, without pyruvate in the medium",3000 nM
same,IC50,"MDA-MB-453; MDA-MB-453, MDA-MB-453, with pyruvate in the medium, read-out: IC50 (XTT) mit Pyrovat",8 µM
"CCN(CC)CCONC(=O)c1c(C)[nH]c(/C=C2\C(=O)Nc3ccc(F)cc32)c1C [Beispiel 2.3, N-[2-(diethylamino)ethoxy]-5-[(Z)-(5-Fluoro-1,2-dihydro-2-oxo-3H-indol-3-ylidene)methyl]-2,4-dimethyl-1H-pyrrole-3-carboxamide, (2S)-hydroxybutanedionate (1:1)]",IC50,"HT-29; HT-29, without pyruvate in the medium",3000 nM
same,IC50,NK1,4 µM
same,IC50,"MCF-7; MCF-7, with pyruvate in the medium, read-out: IC50 (XTT) mit Pyrovat",9 µM
same,IC50,"MCF-7; MCF-7, without pyruvate in the medium, read-out: IC50 ohne Pyrovat",10 µM
CCN(CC)CCONC(=O)c1c(C)[nH]c(/C=C2\C(=O)Nc3ccc(F)cc32)c1C [SO 272],IC50,verschiedenen Zelllinien,1 to 11 µM
"CCN(CC)CCNC(=O)c1c(C)[nH]c(/C=C2\C(=O)Nc3ccc(F)cc32)c1C [SU11248, 5-[5-Fluoro-2-oxo-1,2-dihydroindol-(3Z)-ylidenemethyl]-2,4-dimethyl-1H-pyrrole-3-carboxylic Acid (2-Diethylaminoethyl)amide, reference compound]",IC50,[1],18 µM
same,IC70,[1],"26,7 µM"
